The source of these data is ChEMBL document CHEMBL1125856, “The Interaction of Anhydroalditols with Sweet-Almond -glucosidase and Escherichia coli -galactosidase: implications for the design of potent glycosidase inhibitors” (Bioorg Med Chem Lett, 1991).

Data set [1] has as its target T1, Beta-galactosidase (Escherichia coli, UniProt Q8VNN2). In words: Compound was evaluated for its binding affinity towards Beta-galactosidase.
Data set [2] is described as follows: Ratio of binding affinity towards E-coli beta - galactosidase to that of km/kcat was determined.
Data set [3] is described as follows: Ratio of binding affinity towards E-coli beta - galactosidase to that of Michaelis-Menten constant against E-coli beta-galactosidase.
The target in data set [4] is T1, Beta-galactosidase. In words: Compound was evaluated for its binding affinity towards E-coli Beta-galactosidase.
Data set [5] has as its target T2, Beta-glucosidase (Prunus avium) (UniProt Q43014).
T2 sequence (whole entry): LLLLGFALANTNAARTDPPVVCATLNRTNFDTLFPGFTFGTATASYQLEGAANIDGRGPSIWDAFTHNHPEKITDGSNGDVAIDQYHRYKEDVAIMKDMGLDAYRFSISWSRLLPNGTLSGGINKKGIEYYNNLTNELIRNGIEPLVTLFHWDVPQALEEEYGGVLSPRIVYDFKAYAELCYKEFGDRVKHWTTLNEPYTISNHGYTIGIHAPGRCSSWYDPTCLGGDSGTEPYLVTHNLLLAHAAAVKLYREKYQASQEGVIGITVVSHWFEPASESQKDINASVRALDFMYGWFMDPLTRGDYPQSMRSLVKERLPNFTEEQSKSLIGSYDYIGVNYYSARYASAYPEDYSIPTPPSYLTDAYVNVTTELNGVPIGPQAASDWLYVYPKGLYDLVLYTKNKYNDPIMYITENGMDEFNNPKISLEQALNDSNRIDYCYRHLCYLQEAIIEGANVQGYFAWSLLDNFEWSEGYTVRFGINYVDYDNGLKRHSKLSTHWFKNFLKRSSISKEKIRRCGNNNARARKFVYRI
In words: (§1) Kinetic parameter Km/Kcat against Beta-glucosidase. The settings on record: Prunus dulcis. Details: unit not given here.

Data set [6] concerns the target T2, Beta-glucosidase (Prunus avium). Described as §1. The note with it: Prunus dulcis.
Substrate in data set [7]: OC[C@H]1OC[C@@H](O)[C@@H]1O
In words: (§2) Michaelis-Menten constant against sweet almond Beta-glucosidase.

Substrate in data set [8]: OC[C@H]1OC[C@@H](O)[C@H]1O
Described as §2.

Substrate in data set [9]: OC[C@H]1OC[C@H](O)[C@@H](O)[C@@H]1O
Described as §2.

Substrate in data set [10]: OC[C@H]1OC[C@H](O)[C@@H](O)[C@H]1O
The data set is described as §2.

Substrate in data set [11]: O[C@@H]1COC[C@H]1O
The data set is described as §2.

Substrate in data set [12]: O[C@H]1[C@H](O)COC[C@@H]1O
The description is as §2.

What is called Ki is the dissociation constant of the complex between target and ligand, obtained from inhibition or displacement. For orientation: Km means the substrate concentration at which the rate is half of its maximum.

T1 sequence (Q8VNN2 whole entry): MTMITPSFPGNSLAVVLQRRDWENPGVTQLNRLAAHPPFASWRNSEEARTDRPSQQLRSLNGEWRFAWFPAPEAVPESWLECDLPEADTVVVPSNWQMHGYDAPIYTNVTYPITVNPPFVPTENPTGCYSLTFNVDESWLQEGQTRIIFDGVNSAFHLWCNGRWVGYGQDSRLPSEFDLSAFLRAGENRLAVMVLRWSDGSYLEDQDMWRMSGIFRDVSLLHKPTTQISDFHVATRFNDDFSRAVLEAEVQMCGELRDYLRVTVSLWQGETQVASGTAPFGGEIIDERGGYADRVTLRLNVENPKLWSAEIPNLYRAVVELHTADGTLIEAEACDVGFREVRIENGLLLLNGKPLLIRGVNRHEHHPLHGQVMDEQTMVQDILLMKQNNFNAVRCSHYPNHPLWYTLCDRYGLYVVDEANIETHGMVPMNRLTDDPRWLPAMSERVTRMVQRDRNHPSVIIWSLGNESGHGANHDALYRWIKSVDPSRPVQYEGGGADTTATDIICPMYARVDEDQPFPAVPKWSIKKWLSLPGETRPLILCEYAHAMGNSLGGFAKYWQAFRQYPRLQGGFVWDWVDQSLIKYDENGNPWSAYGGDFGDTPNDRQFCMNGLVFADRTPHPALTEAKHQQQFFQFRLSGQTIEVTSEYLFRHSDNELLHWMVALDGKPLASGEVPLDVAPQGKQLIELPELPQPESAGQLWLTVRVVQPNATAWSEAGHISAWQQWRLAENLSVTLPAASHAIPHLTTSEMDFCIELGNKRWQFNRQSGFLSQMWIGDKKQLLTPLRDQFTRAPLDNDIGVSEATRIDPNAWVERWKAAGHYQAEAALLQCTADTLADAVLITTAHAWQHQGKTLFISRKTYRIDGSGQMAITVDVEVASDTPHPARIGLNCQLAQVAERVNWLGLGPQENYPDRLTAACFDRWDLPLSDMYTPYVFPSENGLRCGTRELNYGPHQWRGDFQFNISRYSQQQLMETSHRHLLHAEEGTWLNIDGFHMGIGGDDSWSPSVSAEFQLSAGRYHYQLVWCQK

At Beta-galactosidase [1], `OC[C@H]1OC[C@@H](O)[C@@H]1O` displayed a Ki of 51 mM. Moreover, the Ki/(Km/Kcat) in data set [2] was 240. The Ki/Km in [3] is 1.6.

As to `OC[C@H]1OC[C@@H](O)[C@H]1O`, the affinity on Beta-galactosidase [4], expressed as Ki, was 1.9 mM. In addition, in [2], the Ki/(Km/Kcat) is 1e+08. Also, the Ki/Km in data set [3] came out at 39.6.

In the case of `C[C@H]1OC[C@H](O)[C@@H](O)[C@H]1O`, in data set [2], the Ki/(Km/Kcat) was found to be 630000. Further, the Ki/Km in data set [3] came to 1.2. Besides, the Km/Kcat in [5] is 6.7e-05.

Consider `O[C@H]1[C@H](O)COC[C@@H]1O`, for which the Ki on Beta-galactosidase [4] stood at 85 mM. In addition, the Ki/(Km/Kcat) in [2] was determined as 85. The Ki/Km in [3] worked out at 15.6. Besides, in [5], the Km/Kcat turned out to be 1.

`O[C@@H]1COC[C@H]1O` came in with a Ki at Beta-galactosidase [4] of 77 mM. Also, the Ki/(Km/Kcat) in [2] amounted to 77. Further, the Ki/Km in data set [3] was 5.1. In addition, the Km/Kcat in data set [5] turned out to be 1.

`OC[C@H]1OC[C@H](O)[C@@H](O)[C@@H]1O` [1,5-Anhydrosorbitol] returned a Ki on Beta-galactosidase [4] of 71 mM. For the same molecule, the Ki/(Km/Kcat) in [2] worked out at 330. For the same molecule, the Ki/Km in data set [3] was found to be 2.2. For the same molecule, the figures for the Km/Kcat in data set [5] and in data set [6] were 0.21 and 0.019, respectively.

On Beta-galactosidase [4], `OC[C@H]1OC[C@H](O)[C@@H](O)[C@H]1O` came in with a Ki of 7.4 mM. For the same molecule, in [2], the Ki/(Km/Kcat) stood at 3.9e+08. The Ki/Km in data set [3] came out at 154.

B1: Beta-glucosidase (Prunus avium), Q43014 (protein)
chain: LLLLGFALANTNAARTDPPVVCATLNRTNFDTLFPGFTFGTATASYQLEGAANIDGRGPSIWDAFTHNHPEKITDGSNGDVAIDQYHRYKEDVAIMKDMGLDAYRFSISWSRLLPNGTLSGGINKKGIEYYNNLTNELIRNGIEPLVTLFHWDVPQALEEEYGGVLSPRIVYDFKAYAELCYKEFGDRVKHWTTLNEPYTISNHGYTIGIHAPGRCSSWYDPTCLGGDSGTEPYLVTHNLLLAHAAAVKLYREKYQASQEGVIGITVVSHWFEPASESQKDINASVRALDFMYGWFMDPLTRGDYPQSMRSLVKERLPNFTEEQSKSLIGSYDYIGVNYYSARYASAYPEDYSIPTPPSYLTDAYVNVTTELNGVPIGPQAASDWLYVYPKGLYDLVLYTKNKYNDPIMYITENGMDEFNNPKISLEQALNDSNRIDYCYRHLCYLQEAIIEGANVQGYFAWSLLDNFEWSEGYTVRFGINYVDYDNGLKRHSKLSTHWFKNFLKRSSISKEKIRRCGNNNARARKFVYRI
For the molecule B1, the Km was 2500 µM in data set [7]; 15.7 mM in data set [8]; 2500 µM in data set [9]; 15.7 mM in data set [10]; 3.1 mM in data set [11]; 3.1 mM in data set [12].
